# Laboratory results reported in patent US8148431B2, “Osteogenesis promoter containing β-cryptoxanthin as the active ingredient” (Kemin Health, L.C., priority 2002, dated 2012).
# Marks after values point to notes of the source that are not given here.
# What was measured:
# [1] = test system: diaphysis tissue of the femur (cortical bone); assay: Bone DNA level in cultured femoral diaphysis tissue pieces; format: cell-based, Wistar male rats; settings: for Bone DNA level: diaphysis tissue, mean ± SE
# Procedure: (§1) The femurs were extracted from rats (Wistar male rats; 4 to 5 weeks old) (purchased from Japan SLC Co., Ltd. and fed with solid Oriental yeast (MF)) under anesthesia with ether under a germfree condition. The femurs were each washed with 0.25 M sucrose solution, and then divided into the diaphysis (cortical bone) and metaphysis (cancellous bone). The bone tissue pieces were cultured in a culture medium (Dulbecco's modified culture medium containing 5% of glucose; serum-free medium) containing. β-cryptoxanthin, etc. at […] in an incubator filled with 5% CO2-95% air for 48 hours. β-cryptoxanthin used was “β-cryptoxanthin” of Extrasynthase Co., cycloheximide used was “Cycloheximide” of Sigma Co. Ltd., β-carotene was “β-carotene” of Sigma ? , xanthine was “Xanthine” of Sigma Co, Ltd., parathormone was “Parathormone” of Sigma Co. Ltd. and prostaglandin E2 was “Prostaglandin E2” of Sigma Co. Ltd. In the control, only the culture medium was used without β-cryptoxanthin or the like.
# (§2) DNA level was determined as an index of the number of cells in the bone tissue. After the culture in an incubator, the tissue pieces were washed with 0.25 M sucrose solution and then the wet weight of them was determined. They were pulverized in 4 ml of 0.1 N NaOH. After the osmosis at 4° C. for 24 hours, the liquid mixture was centrifuged. The supernatant was taken as the sample and determined by a method of Ceriotti et al. (J. Biol. Chem., 241; 34-77, 1951). Namely, 1 ml of concentrated hydrochloric acid and 1 ml of 0.04% indole solution were added to 2 ml of the sample and then the resultant mixture was heated to 100° C. in boiling water. After quenching followed by the extraction with 4 ml of chloroform, the chloroform layer was taken to determine bone DNA level with a spectrophotometer (490 nm).
# The bone component-increasing effect of β-cryptoxanthin was examined. The diaphysis and metaphysis tissue of the femur was cultured in the above-described culture medium containing β-cryptoxanthin ([…]) for 48 hours. Calcium level in the bone tissue, alkaline phosphatase activity (enzyme for accelerating the bone calcification) and the amount of deoxyribonucleic acid (DNA; index of number of cells in the bone tissue) were determined by the same methods as in Example 1. In each test group, the determination vas conducted 6 to 8 times and the results were represented by the average value and the standard error. The significant difference was determined by Student's t-test. The result was compared with that of the control. When P value was not higher than 0.01 (**) or not higher than 0.05 (*), the results were statistically significant.
# [2] = test system: rats, femoral metaphysis tissue; assay: Oral administration to rats: bone DNA level in metaphysis tissue; format: in vivo, Wistar male rats; settings: for Bone DNA level: metaphysis tissue
# Procedure: as §2
# (§3) A solution of β-cryptoxanthin in corn oil having one of three kinds of concentration (10, 25 and 50 μg/ml corn oil) was orally administered to rats (Wistar male rats; 4 to 5 weeks old) in an amount/100 g body weight with a probe once a day for 7 days. The rats were sacrificed 24 hours after the final administration. The femurs were excised. The muscles, etc. were taken out and each femur was divided into diaphysis and metaphysis to determine the bone components.
# (§4) Tests were conducted to examine whether the bone components are increased by the oral administration of β-cryptoxanthin to rats or not. β-cryptoxanthin was administered for 7 days (10, 25 or 50 μg/100 g body weight/day) and then calcium level in the bone tissue, determination of alkaline phosphatase activity (enzyme for the acceleration of the calcification of bones) and the amount of deoxyribonucleic acid (DNA: index of the number of the cells in the bone tissue) were determined by the same methods as those in Example 1. In each test group, the determination was conducted 6 times and the results were represented by the average value and the standard error. The significant difference was determined by Student's t-test. The result was compared with that of the control. When P value was not higher than 0.01 (*) as compared with the control, the results were statistically significant.
# [3] = test system: metaphysis tissue of the femur; assay: Bone resorption (PTH or prostaglandin E2): bone calcium level in cultured metaphysis tissue; format: cell-based, Wistar male rats
# Procedure: as §1
# (§5) Bone calcium level in the bone tissue was determined. After the culture in the incubator, the tissue pieces were washed with 0.25 M sucrose solution and dried and then the bone was weighed. Then concentrated nitric acid was added to the tissue pieces. After the incineration at 120° C. for 12 hours, the bone calcium level was determined with an atomic absorption photometer (“Perkin-Elmer 303” of Perkin-Elmer Co.).
# (§6) The bone mineral dissolution-inhibiting effect of β-cryptoxanthin was examined. […] PTH also has a pathophysiologic role on the expression of osteoporosis caused by the aging. It is known that prostaglandin E2 also causes physiologic bone mineral dissolution. The diaphysis or metaphysis tissue of the femur was cultured in the presence of 10^−7 M PTH or 10^−5 M prostaglandin E2 for 48 hours and then calcium level in the bone tissue was determined. In another experiment, the culture was conducted in the same manner as that described above in the coexistence of them and β-cryptoxanthin (10^−8 M to 10^−6 M) and then calcium level in the bone tissue was determined. In each test group, the determination was conducted 6 to 8 times and the results were represented by the average value and the standard error. The significant difference was determined by Student's t-test. The result was compared with that of the control. When P value was not higher than 0.01 (*) as compared with the control or it is not higher than 0.1 (#) as compared with that of prostaglandin E2, the results were statistically significant.
# [4] = test system: diaphysis tissue of the femur; assay: Bone resorption (PTH or prostaglandin E2): bone calcium level in cultured diaphysis tissue; format: cell-based, Wistar male rats
# Procedure: as §1, §5, §6
# [5] = test system: rats, femoral diaphysis tissue; assay: Oral administration to rats: bone DNA level in diaphysis tissue; format: in vivo, Wistar male rats; settings: for Bone DNA level: diaphysis tissue
# Procedure: as §2, §3, §4
# [6] = test system: rats, femoral diaphysis tissue; assay: Oral administration to rats: bone calcium level in diaphysis tissue; format: in vivo, Wistar male rats; settings: for Bone calcium level: diaphysis tissue
# Procedure: as §5, §3, §4
# [7] = 10, 25 or 50 μg/100 g body weight/day, 7 days
# [8] = oral 10 μg/100 g body weight/day for 7 days
# [9] = oral 25 μg/100 g body weight/day for 7 days
# [10] = oral 50 μg/100 g body weight/day for 7 days
# [11] = β-cryptoxanthin 10^−8 to 10^−6 M in the presence of PTH
structure (smiles),measurement,setting,value
CC1=C(/C=C/C(C)=C/C=C/C(C)=C/C=C/C=C(C)/C=C/C=C(C)/C=C/C2=C(C)C[C@@H](O)CC2(C)C)C(C)(C)CCC1 [β-cryptoxanthin],Effect on DNA level in the diaphysis tissue (in words),"[1]; 10^−7 to 10^−5 M, 48 h culture, vs control",significantly increased
same,Bone DNA level,"[1]; Table 2 (protein synthesis inhibitor experiment), 10^−6 M (each agent), n=6",1.800 ± 0.025* mg/g bone wet weight
same,Bone DNA level,"[1]; 10^−5 M, 48 h culture",1.802 ± 0.063** mg/g bone wet weight
same,Bone DNA level,"[1]; 10^−6 M, 48 h culture",1.746 ± 0.016* mg/g bone wet weight
same,Bone DNA level,"[1]; 10^−7 M, 48 h culture",1.788 ± 0.049* mg/g bone wet weight
same,Bone DNA level,"[1]; 10^−8 M, 48 h culture",1.741 ± 0.099 mg/g bone wet weight
same,Bone DNA level in diaphysis tissue increased by β-cryptoxanthin: change in the presence of cycloheximide (in words),[1]; β-cryptoxanthin 10^−6 M with cycloheximide,significantly lowered
same,"Effect on DNA in the bone tissue, metaphysis, after oral administration (in words)",[2]; [7],significantly increased
same,Bone DNA level,[2]; [8],4.10 ± 0.24* mg/g bone wet weight
same,Bone DNA level,[2]; [9],4.25 ± 0.21* mg/g bone wet weight
same,Bone DNA level,[2]; [10],4.01 ± 0.18* mg/g bone wet weight
same,Control of prostaglandin E2-caused reduction of calcium level in the bone tissue (in words),"[3]; metaphysis tissue, β-cryptoxanthin 10^−5 to 10^−6 M (so in the source) with prostaglandin E2 10^−5 M",completely controlled
same,Control of PTH-caused reduction of calcium level in the metaphysis tissue (in words),[3]; [11],significantly controlled
same,Control of prostaglandin E2-caused reduction of calcium level in the bone tissue (in words),"[4]; diaphysis tissue, β-cryptoxanthin 10^−5 to 10^−6 M (so in the source) with prostaglandin E2 10^−5 M",completely controlled
same,Control of PTH-caused reduction of calcium level in the diaphysis tissue (in words),[4]; [11],significantly controlled
same,"Effect on DNA in the bone tissue, diaphysis, after oral administration (in words)","[5]; 25 or 50 μg/100 g body weight/day, 7 days",significantly increased
same,Bone DNA level,[5]; [8],1.95 ± 0.18 mg/g bone wet weight
same,Bone DNA level,[5]; [9],3.01 ± 0.23* mg/g bone wet weight
same,Bone DNA level,[5]; [10],2.53 ± 0.20* mg/g bone wet weight
same,Effect on calcium level in the diaphysis tissue after oral administration (in words),[6]; [7],significantly increased
same,Bone calcium level,[6]; [8],232.8 ± 3.00* mg/g dry weight
same,Bone calcium level,[6]; [9],248.3 ± 5.10* mg/g dry weight
same,Bone calcium level,[6]; [10],247.5 ± 4.20* mg/g dry weight
